US9428487B2, “Heteroaromatic amides and thioamides as pesticides” (Bayer Intellectual Property GmbH, priority 2008, dated 2016)
Where two headings read alike, the source gives them in different places.

Experiments:
[1] = Determination of log P values by HPLC on reversed-phase column (formic acid method); assay type: physicochemical
Outline: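 Reversed-phase C18 HPLC per EEC Directive 79/831 Annex V.A8, pH 3.4, acetonitrile/water with formic acid, gradient 10% to 95% acetonitrile in 4.25 min. log P obtained from retention times by linear interpolation between successive unbranched alkan-2-ones (C3–C16) of known log P.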

[2] = test system: green peach aphid (Myzus persicae); assay: Myzus test; assay type: in vivo; conditions: read-out: efficacy (aphids killed)
Outline: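 Active ingredient formulated in acetone/dimethylformamide with alkylaryl polyglycol ether emulsifier, diluted in emulsifier-containing water. Sprayed onto Chinese cabbage leaf discs carrying all aphid stages; % efficacy scored after set time (100% = all aphids dead).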

[3] = reversed-phase HPLC column (C 18), pH 3.4, HPLC, reversed-phase C 18, acidic range (pH 3.4), formic acid eluents, 55° C., read-out: logP (HCOOH)
[4] = application rate 500 g/ha, spray on Chinese cabbage leaf slices
[5] = HPLC, reversed-phase C 18, acidic range (pH 3.4), formic acid eluents, 55° C., read-out: logP (HCOOH)

| chromatographic logP [1, 3] | SMILES | pest or weed control at 500 g/ha [2, 4] | also measured |
| --- | --- | --- | --- |
| 2.3 | O=C(NC(C(F)(F)F)C(F)(F)F)c1cnc(-c2cccnc2)s1 [Compound 171] | ≥ 70% | – |
| 1.63 | Cc1nc(-c2cccnc2)sc1C(=O)NCc1nc(C2CC2)no1 [Compound 172] | ≥ 70% | – |
| 1.5 | CCON(C)C(=O)c1cnc(-c2cccnc2)s1 [Compound 173] | ≥ 70% | – |
| 1.44 | COC(C)(CNC(=O)c1sc(-c2cccnc2)nc1C)OC [Compound 174] | ≥ 70% | – |
| 1.02 | CC(=O)CNC(=O)c1sc(-c2cccnc2)nc1C [Compound 175] | ≥ 70% | – |
| 1.19 | CCc1nccc(CNC(=O)c2cnc(-c3cccnc3)s2)n1 [Compound 176] | ≥ 70% | – |
| – | Cc1nc(-c2cccnc2)sc1C(=O)NCCCl [Compound 177] | – | chromatographic logP [1, 5]: 1.41; pest or weed control at 500 g/ha ([2]; in Brassica rapa): ≥ 70% |
| 1.65 | CCOC(=O)CN(OC)C(=O)c1cnc(-c2cccnc2)s1 [Compound 178] | ≥ 70% | – |
| 1.68 | O=C(NCc1cccc(Br)n1)c1cnc(-c2cccnc2)s1 [Compound 179] | ≥ 70% | – |
| 1.33 | CN(CC1CCCO1)C(=O)c1cnc(-c2cccnc2)s1 (centres unmarked) [Compound 180] | ≥ 70% | – |
| 2.58 | CCCC(NC(=O)c1sc(-c2cccnc2)nc1C)C(F)(F)F (centres unmarked) [Compound 181] | ≥ 70% | – |
| 2.24 | Cc1nc(-c2cccnc2)sc1C(=O)NC(C)(C)C(F)(F)F [Compound 182] | ≥ 70% | – |
| 1.53 | CCN(OC)C(=O)c1cnc(-c2cccnc2)s1 [Compound 183] | ≥ 70% | – |
| 1.05 | Cc1nc(-c2cccnc2)sc1C(=O)NCC#N [Compound 184] | ≥ 70% | – |
| 2.91 | COc1ccc(CN(CC(F)(F)F)C(=O)c2sc(-c3cccnc3)nc2C)cc1 [Compound 185] | ≥ 70% | – |
| 1.77 | Cc1ccc(CNC(=O)c2cnc(-c3cccnc3)s2)o1 [Compound 186] | ≥ 70% | – |
| 1.64 | CCN(CC1CCCO1)C(=O)c1sc(-c2cccnc2)nc1C (centres unmarked) [Compound 187] | ≥ 70% | – |
| 1.45 | COCN(CC1COCCO1)C(=O)c1sc(-c2cccnc2)nc1C (centres unmarked) [Compound 188] | ≥ 70% | – |
| 2.13 | Cc1nc(-c2cccnc2)sc1C(=O)NCC(F)(F)C(F)(F)F [Compound 189] | ≥ 70% | – |

| chromatographic logP [1, 3] | SMILES | pest or weed control at 500 g/ha [2, 4] | also measured |
| --- | --- | --- | --- |
| 1.77 | CCC(=O)N(CC#N)C(=O)c1cnc(-c2cccnc2)s1 [Compound 190] | ≥ 70% | – |
| 1.53 | CSC[C@H](C)NC(=O)c1cnc(-c2cccnc2)s1 [Compound 191] | ≥ 70% | – |
| 1.59 | CN(CC(F)(F)F)C(=O)c1cnc(-c2cccnc2)s1 [Compound 192] | ≥ 70% | – |
| 1.21 | Cc1nc(-c2cccnc2)sc1C(=O)NC1(c2ncccn2)CC1 [Compound 193] | ≥ 70% | – |
| 1.47 | Cc1nc(-c2cccnc2)sc1C(=O)NC1CSC1 [Compound 194] | ≥ 70% | – |
| 1.5 | Cc1nc(-c2cccnc2)sc1C(=O)NC(C)C1CCCO1 (centres unmarked) [Compound 195] | ≥ 70% | – |
| – | COC(=O)N(C)NC(=O)c1sc(-c2cccnc2)nc1C [Compound 196] | ≥ 70% | chromatographic logP [1, 5]: 1.23 |
| – | CCOC(=O)N(C)NC(=O)c1sc(-c2cccnc2)nc1C [Compound 197] | ≥ 70% | chromatographic logP [1, 5]: 1.48 |
| 1.44 | CCC1(CC)NC(=O)N(NC(=O)c2sc(-c3cccnc3)nc2C)C1=O [Compound 199] | ≥ 70% | – |
| 1.01 | Cc1nc(-c2cccnc2)sc1C(=O)NN(C)Cc1ccccn1 [Compound 200] | ≥ 70% | – |
| 1.37 | Cc1nc(-c2cccnc2)sc1C(=O)NN1CCCC1 [Compound 201] | ≥ 70% | – |
| 1.39 | Cc1nc(-c2cccnc2)sc1C(=O)NN1CCCCC1 [Compound 202] | ≥ 70% | – |
| 1.23 | Cc1nc(-c2cccnc2)sc1C(=O)NN1CCOCC1 [Compound 203] | ≥ 70% | – |
| 1.11 | Cc1nc(-c2cccnc2)sc1C(=O)NN1CCOC1=O [Compound 204] | ≥ 70% | – |
| 2.39 | Cc1nc(-c2cccnc2)sc1C(=S)NCC(F)(F)F [Preparation Example 4] | ≥ 70% | logP (HCOOH) ([1]; HPLC, reversed-phase C 18, acidic range (pH 3.4), formic acid eluents, 55° C.): 2.38 |
| 1.61 | Cc1nc(-c2cncnc2)sc1C(=O)NCC(F)(F)F [Preparation Example 5] | ≥ 70% | – |
| 0.85 | O=C(NCc1ncccn1)c1nnc(-c2cccnc2)s1 [Preparation Example 7] | ≥ 70% | chromatographic logP ([1]; pH 7.5, pH=7.5, read-out: log P (pH=7.5)): 0.85 |
| – | CN(C)C(=O)c1nnc(-c2cccnc2)s1 [Preparation Example 8, N,N-dimethyl-5-pyridin-3-yl[1,3,4]thiadiazole-2-carboxamide] | – | chromatographic logP [1, 5]: 0.95; pest or weed control at 500 g/ha ([2]; in Brassica rapa): ≥ 70% |

| SMILES | chromatographic logP [1, 3] | pest or weed control at 500 g/ha [2, 4] | also measured |
| --- | --- | --- | --- |
| Cc1nc(-c2cccnc2)sc1C(=O)NCC(F)(F)Cl [Preparation Example 1, N-(2-chloro-2,2-difluoroethyl)-4-methyl-2-pyridin-3-ylthiazole-5-carboxamide] | 1.84 | – | pest or weed control at 500 g/ha ([2]; in Brassica rapa): ≥ 70% |
| Cc1cc(C)nc(CNC(=O)c2cnc(-c3cccnc3)s2)n1 [Preparation Example 3] | 1.19 | – | pest or weed control at 500 g/ha ([2]; in Brassica rapa): ≥ 70% |
